# Test results reported in patent US20020137929A1, “1 - (3-heterocyclylphenyl) isothiourea, -isourea, -guanidine and -amidine herbicidal agents” (Intellectual Property Department, BASF Aktiengesellschaft, priority 1998, published 2002).
# Columns and labels:
# GALAP (Galium) [1] = assay: Preemergence herbicidal evaluation; assay type: in vivo, Galium aparine; conditions: rated 4-5 weeks after treatment
# Outline: (§1)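 Test compound, dissolved in aqueous acetone, was sprayed over planted soil cups at an equivalent of about 0.0156 to 0.500 kg/ha; seeds had been mixed with potting soil. Greenhouse growth followed, with visual 0-9 scoring of injury at four to five weeks.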
# [2] = system: CHEAL (Lambsquarters, Common); assay: Postemergence herbicidal evaluation; assay type: in vivo, Chenopodium album
# Outline: (§2)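 Rate range approx. 0.0156–0.500 kg/ha. Foliar application at 40 psi to ~2-week seedlings; surfactant 0.5% TWEEN 20 in 50/50 acetone/water. Evaluation 4–5 wk post-treatment by 0–9 visual injury score, means of replicate tests.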
# ZEAMX (Corn, Field) = assay: Preemergence herbicidal evaluation; assay type: in vivo, Zea mays; conditions: rated 4-5 weeks after treatment
# Outline: as §1
# CYPSE (Flatsedge) [3] = assay: Preemergence weed control under flooded paddy conditions; assay type: in vivo, Cyperus serotinus; conditions: rated 3-4 weeks after treatment
# Outline: (§3)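 Seeds or propagules sown in top 0.5 cm of silt loam soil, flooded 1.5 to 3 cm above surface throughout. Compound in 50/50 v/v aqueous/acetone pipetted into flood water at about 0.0313 to 0.500 kg/ha. Visual 0-9 rating versus control after three to four weeks in greenhouse.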
# GALAP (Galium) [4] = assay: Postemergence herbicidal evaluation; assay type: in vivo, Galium aparine
# Outline: as §2
# CASOB (Sicklepod) [5] = assay: Postemergence herbicidal evaluation; assay type: in vivo, Cassia obtusifolia
# Outline: as §2
# CASOB (Sicklepod) [6] = assay: Preemergence herbicidal evaluation; assay type: in vivo, Cassia obtusifolia; conditions: rated 4-5 weeks after treatment
# Outline: as §1
# ORYSAT (Rice, Tebonnet) = assay: Postemergence herbicidal evaluation; assay type: in vivo, Oryza sativa, (L.) Tebonnet
# Outline: as §2
# ECHCG (Barnyardgrass) = assay: Postemergence herbicidal evaluation; assay type: in vivo, Echinochloa crus-galli
# Outline: as §2
# CYPIR (Rice Flatsedge) = assay: Preemergence weed control under flooded paddy conditions; assay type: in vivo, Cyperus iria; conditions: rated 3-4 weeks after treatment
# Outline: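 Ratings on a 0-9 visual scale cover stand, vigor, malformation, size, chlorosis and overall appearance relative to a control, taken three to four weeks post-treatment. Application was into flood water over freshly sown silt loam at roughly 0.0313 to 0.500 kg/ha.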
# [7] = system: SAGPY (Arrowhead (Pygmaea)); assay: as above; assay type: in vivo, Sagittaria pygmaea; conditions: rated 3-4 weeks after treatment
# Outline: as §3
# [8] = system: GLXMAW (Soybean, Williams); assay: Postemergence herbicidal evaluation; assay type: in vivo, Glycine max, (L.) Merr. cv Williams
# Outline: as §2
# CYPSE (Flatsedge) [9] = assay: Postemergence weed control under flooded paddy conditions; assay type: in vivo, Cyperus serotinus; conditions: postemergence weeds, 3-4 weeks after treatment
# Outline: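 Injury ratings (0–9 scale covering stand, vigor, malformation, size, chlorosis and overall appearance versus control) were made three to four weeks after treatment. Test material, about 0.0313 to 0.500 kg/ha a.i. in 50/50 v/v aqueous/acetone, was added to flood water 1.5 to 3 cm deep over 3 to 5 cm weeds and 1.5 to 2.5 leaf rice.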
# SETVI (Foxtail, Green) = assay: Postemergence herbicidal evaluation; assay type: in vivo, Setaria viridis
# Outline: as §2
# AMBEL (Ragweed, Common) = assay: Postemergence herbicidal evaluation; assay type: in vivo, Ambrosia artemisifolia
# Outline: as §2
smiles,measurement,setting,value
"CCOC(=O)CN1C(=O)C(CC(=O)OCc2ccccc2)OC1=Nc1cc(-n2c(=O)cc(C(F)(F)F)n(C)c2=O)c(F)cc1Cl (stereo not shown) [Compound 40, 2-{{2-Chloro-5-[3,6-dihydro-3-methyl-2,6-dioxo-4-(trifluoromethyl)-1(2H)-pyrimidinyl]-4-fluorophenyl}imino}-4-oxo-3,5-oxazolidinediacetic acid, 5-benzyl ethyl ester]",Preemergence herbicidal rating GALAP,GALAP (Galium) [1]; rate 0.0313 kg/ha,0.0
same,Preemergence herbicidal rating GALAP,GALAP (Galium) [1]; rate 0.0625 kg/ha,0.0
same,Preemergence herbicidal rating GALAP,GALAP (Galium) [1]; rate 0.1250 kg/ha,0.0
same,Preemergence herbicidal rating GALAP,GALAP (Galium) [1]; rate 0.2500 kg/ha,0.0
same,Postemergence herbicidal rating CHEAL,[2]; Rate 0.0158 kg/ha,2.0
same,Postemergence herbicidal rating CHEAL,[2]; Rate 0.0315 kg/ha,7.0
same,Postemergence herbicidal rating CHEAL,[2]; Rate 0.0630 kg/ha,9.0
same,Preemergence herbicidal rating ZEAMX,"ZEAMX (Corn, Field); rate 0.0313 kg/ha",0.0
same,Preemergence herbicidal rating ZEAMX,"ZEAMX (Corn, Field); rate 0.0625 kg/ha",0.0
same,Preemergence herbicidal rating ZEAMX,"ZEAMX (Corn, Field); rate 0.1250 kg/ha",0.0
same,Preemergence herbicidal rating ZEAMX,"ZEAMX (Corn, Field); rate 0.2500 kg/ha",1.0
same,Herbicidal rating CYPSE,CYPSE (Flatsedge) [3]; 0.0313 kg/ha,0.0
same,Herbicidal rating CYPSE,CYPSE (Flatsedge) [3]; 0.0625 kg/ha,0.0
same,Herbicidal rating CYPSE,CYPSE (Flatsedge) [3]; 0.1250 kg/ha,0.0
same,Herbicidal rating CYPSE,CYPSE (Flatsedge) [3]; 0.2500 kg/ha,6.0
same,Postemergence herbicidal rating GALAP,GALAP (Galium) [4]; Rate 0.0158 kg/ha,1.0
same,Postemergence herbicidal rating GALAP,GALAP (Galium) [4]; Rate 0.0315 kg/ha,2.0
same,Postemergence herbicidal rating GALAP,GALAP (Galium) [4]; Rate 0.0630 kg/ha,4.0
same,Postemergence herbicidal rating CASOB,CASOB (Sicklepod) [5]; Rate 0.0158 kg/ha,0.0
same,Postemergence herbicidal rating CASOB,CASOB (Sicklepod) [5]; Rate 0.0315 kg/ha,2.0
same,Postemergence herbicidal rating CASOB,CASOB (Sicklepod) [5]; Rate 0.0630 kg/ha,5.0
same,Preemergence herbicidal rating CASOB,CASOB (Sicklepod) [6]; rate 0.0313 kg/ha,0.0
same,Preemergence herbicidal rating CASOB,CASOB (Sicklepod) [6]; rate 0.0625 kg/ha,0.0
same,Preemergence herbicidal rating CASOB,CASOB (Sicklepod) [6]; rate 0.1250 kg/ha,0.0
same,Preemergence herbicidal rating CASOB,CASOB (Sicklepod) [6]; rate 0.2500 kg/ha,1.0
same,Postemergence herbicidal rating ORYSAT,"ORYSAT (Rice, Tebonnet); Rate 0.0158 kg/ha",2.5
same,Postemergence herbicidal rating ORYSAT,"ORYSAT (Rice, Tebonnet); Rate 0.0315 kg/ha",3.0
same,Postemergence herbicidal rating ORYSAT,"ORYSAT (Rice, Tebonnet); Rate 0.0630 kg/ha",3.0
same,Postemergence herbicidal rating ECHCG,ECHCG (Barnyardgrass); Rate 0.0158 kg/ha,1.0
same,Postemergence herbicidal rating ECHCG,ECHCG (Barnyardgrass); Rate 0.0315 kg/ha,7.0
same,Postemergence herbicidal rating ECHCG,ECHCG (Barnyardgrass); Rate 0.0630 kg/ha,9.0
same,Herbicidal rating CYPIR,CYPIR (Rice Flatsedge); 0.0313 kg/ha,0.0
same,Herbicidal rating CYPIR,CYPIR (Rice Flatsedge); 0.0625 kg/ha,0.0
same,Herbicidal rating CYPIR,CYPIR (Rice Flatsedge); 0.1250 kg/ha,0.0
same,Herbicidal rating CYPIR,CYPIR (Rice Flatsedge); 0.2500 kg/ha,0.0
same,Herbicidal rating SAGPY,[7]; 0.0313 kg/ha,0.0
same,Herbicidal rating SAGPY,[7]; 0.0625 kg/ha,0.0
same,Herbicidal rating SAGPY,[7]; 0.1250 kg/ha,0.0
same,Herbicidal rating SAGPY,[7]; 0.2500 kg/ha,0.0
same,Postemergence herbicidal rating GLXMAW,[8]; Rate 0.0158 kg/ha,7.0
same,Postemergence herbicidal rating GLXMAW,[8]; Rate 0.0315 kg/ha,9.0
same,Postemergence herbicidal rating GLXMAW,[8]; Rate 0.0630 kg/ha,8.0
same,Herbicidal rating CYPSE,CYPSE (Flatsedge) [9]; rate 0.0313 kg/ha,0.0
same,Herbicidal rating CYPSE,CYPSE (Flatsedge) [9]; rate 0.0625 kg/ha,0.0
same,Herbicidal rating CYPSE,CYPSE (Flatsedge) [9]; rate 0.1250 kg/ha,0.0
same,Herbicidal rating CYPSE,CYPSE (Flatsedge) [9]; rate 0.2500 kg/ha,6.0
same,Postemergence herbicidal rating SETVI,"SETVI (Foxtail, Green); Rate 0.0158 kg/ha",1.0
same,Postemergence herbicidal rating SETVI,"SETVI (Foxtail, Green); Rate 0.0315 kg/ha",7.0
same,Postemergence herbicidal rating SETVI,"SETVI (Foxtail, Green); Rate 0.0630 kg/ha",9.0
same,Postemergence herbicidal rating AMBEL,"AMBEL (Ragweed, Common); Rate 0.0158 kg/ha",9.0
same,Postemergence herbicidal rating AMBEL,"AMBEL (Ragweed, Common); Rate 0.0315 kg/ha",9.0
same,Postemergence herbicidal rating AMBEL,"AMBEL (Ragweed, Common); Rate 0.0630 kg/ha",9.0
